Experimental data reported in patent publication US10525055B2, “Opioid receptor antagonist prodrugs” (Nirsum Laboratories, Inc., priority 2017, dated 2020).

Experiments:
[1] = Solubility determination in oil (cottonseed oil, sesame oil); settings: heating temp. 60 °C
Method: A known amount of test substance (˜40 mg) was weighed into the vial, 100 μL of oil was added and heated to 60° C. and then system was slurried to reach equilibrium. […] Extra oil was added into the vial once compound precipitated out and then the system was re-equilibrated at 1000 rpm at room temperature (25° C.). Final concentration was determined by HPLC method as described below in Table 6a and 6b.

[2] = Equilibrium solubility in water; settings: obs. temp. 40 °C
[3] = Liver S9 fraction stability, dog; assay type: in vitro ADME; settings: 1.0 mg/ml S9 protein, 2 μM, 37° C.
Method: (§1) Liver S9 fraction stability determination of the test compounds in dog, cynomolgus monkey and human is performed using HPLC-MS. Test compound (2 μM, 0.1% DMSO, 1% Methanol final concentration) was assessed for stability in a 50 μl phosphate buffer containing 1.0 mg/ml S9 protein from each of the three species and 5 mM D-saccharic acid-1, 4-lactone. Samples were incubated at 37° C. for 60 minutes and the % compound remaining was assessed.

[4] = Liver S9 fraction stability, human; assay type: in vitro ADME; settings: 1.0 mg/ml S9 protein, 2 μM, 37° C.
Method: as §1

[5] = Plasma stability assay, monkey plasma; assay type: in vitro ADME, cynomolgus monkey; settings: 37° C., 2 μM; for % remaining at time point in minutes, 15 min: 15 min (as headed); for % remaining at time point in minutes, 120 min: 120 min (as headed); for % remaining at time point in minutes, 480 min: 480 min (as headed); for % remaining at time point in minutes, 1440 min: 1440 min (as headed)
Method: (§2) Plasma stability determination of the test compounds in rat, dog, cynomolgus monkey and human plasma is performed using HPLC-MS. For rat, incubations are carried out in 96-well polypropylene plates in 5 aliquots of 70 μL each (one for each time point). […] Five time points are analyzed (0, 15, 120, 480 and 1440 min). […] All incubations are performed in duplicates. The samples are analyzed by HPLC-MS. The percentage of parent compound remaining after incubation in plasma is determined.

MOR = target: T1, MOR (Homo sapiens, UniProt P35372); experiment: Opioid receptor binding assay, MOR ([3H]DAMGO); settings: MOR, MaxDose 10000 nM
T1 construct: expressed in transfected cells; membranes prepared from them
T1 sequence (P35372 whole entry): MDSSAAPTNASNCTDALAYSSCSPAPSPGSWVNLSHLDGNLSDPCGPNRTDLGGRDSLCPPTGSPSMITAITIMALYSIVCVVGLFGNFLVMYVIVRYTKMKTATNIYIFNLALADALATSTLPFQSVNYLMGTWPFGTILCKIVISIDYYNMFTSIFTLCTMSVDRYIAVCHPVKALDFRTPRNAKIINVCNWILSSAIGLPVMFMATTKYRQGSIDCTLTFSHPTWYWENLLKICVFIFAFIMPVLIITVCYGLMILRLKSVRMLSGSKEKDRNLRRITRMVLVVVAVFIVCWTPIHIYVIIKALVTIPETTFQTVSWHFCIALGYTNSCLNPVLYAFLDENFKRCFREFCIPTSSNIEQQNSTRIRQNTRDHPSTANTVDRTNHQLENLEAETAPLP

[6] = Plasma stability assay, human plasma; assay type: in vitro ADME; settings: 37° C., 2 μM; for % remaining at time point in minutes, 15 min: 15 min (as headed); for % remaining at time point in minutes, 120 min: 120 min (as headed); for % remaining at time point in minutes, 480 min: 480 min (as headed); for % remaining at time point in minutes, 1440 min: 1440 min (as headed)
Method: as §2

[7] = Dog pharmacokinetic studies, deep intramuscular; assay type: in vivo, Beagle dogs; settings: dog IM, Sesame oil + 1% Benzyl Alcohol
[8] = Rat pharmacokinetic studies, intramuscular; assay type: in vivo, male Sprague Dawley Rats; settings: rat IM
Method: The purpose of this study is to determine the pharmacokinetics of test compounds in plasma, following intramuscular administration to male Sprague Dawley Rats (n=3, unless otherwise specified).
The dose formulation of 400 mg base equivalents/ml in sesame oil+1% benzyl alcohol (unless otherwise specified) was administered by intramuscular injection. The dose volume was determined by the animals' body weight determined on the morning of dosing day.
Each collected blood sample was centrifuged for 4 minutes at 4° C. and 10000 rpm for plasma collection. Plasma was collected and transferred into a pre-labeled PP tube in dry ice at each time point and precipitated immediately using ACN at a ratio of 1:4 (plasma:ACN). Centrifuged again (10 minutes, 12000 rpm) and obtain the supernatant.
After terminal collection, all supernatant was stored at approximately −80° C. until bioanalysis.
LC-MS/MS methods for the quantitative determination of test compound in biological matrix were developed. […] The sample analysis was performed concurrently with a set of calibration standards and two sets of QC samples using the LC-MS/MS method.
Plasma concentration versus time data was analyzed by non-compartmental approaches using the Phoenix WinNonlin 6.3 software program. Cmax, Tmax, T1/2, AUC(0-t), AUC(0-inf), MRT(0-t), MRT(0-inf) and graphs of plasma concentration versus time profile were prepared.

[9] = Plasma stability assay, rat plasma; assay type: in vitro ADME; settings: 37° C., 10 μM
KOR = target: T2, KOR (Homo sapiens, UniProt P41145); experiment: Opioid receptor binding assay, KOR ([3H]Diprenorphine); settings: KOR, MaxDose 10000 nM
T2 construct: expressed in transfected cells; membranes prepared from them
T2 sequence (P41145 whole entry): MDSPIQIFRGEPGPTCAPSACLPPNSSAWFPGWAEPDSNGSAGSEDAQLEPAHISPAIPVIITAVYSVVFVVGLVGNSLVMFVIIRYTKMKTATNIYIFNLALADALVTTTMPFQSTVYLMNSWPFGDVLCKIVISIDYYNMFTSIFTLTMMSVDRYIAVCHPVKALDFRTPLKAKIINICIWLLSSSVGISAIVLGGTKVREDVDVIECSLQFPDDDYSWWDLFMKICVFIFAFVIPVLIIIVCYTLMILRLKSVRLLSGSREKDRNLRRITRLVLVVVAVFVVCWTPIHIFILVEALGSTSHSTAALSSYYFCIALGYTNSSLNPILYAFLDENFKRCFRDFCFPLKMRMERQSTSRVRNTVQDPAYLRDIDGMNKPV

[10] = Liver S9 fraction stability, monkey; assay type: in vitro ADME, cynomolgus monkey; settings: 1.0 mg/ml S9 protein, 2 μM, 37° C.
Method: as §1

[11] = Plasma stability assay, dog plasma; assay type: in vitro ADME; settings: 37° C., 2 μM; for % remaining at time point in minutes, 15 min: 15 min (as headed); for % remaining at time point in minutes, 120 min: 120 min (as headed); for % remaining at time point in minutes, 480 min: 480 min (as headed); for % remaining at time point in minutes, 1440 min: 1440 min (as headed)
Method: as §2

DOR = target: T3, DOR (Homo sapiens, UniProt P41143); experiment: Opioid receptor binding assay, DOR ([3H]-DADLE); settings: DOR, MaxDose 10000 nM
T3 construct: expressed in transfected cells; membranes prepared from them
T3 sequence (P41143 whole entry): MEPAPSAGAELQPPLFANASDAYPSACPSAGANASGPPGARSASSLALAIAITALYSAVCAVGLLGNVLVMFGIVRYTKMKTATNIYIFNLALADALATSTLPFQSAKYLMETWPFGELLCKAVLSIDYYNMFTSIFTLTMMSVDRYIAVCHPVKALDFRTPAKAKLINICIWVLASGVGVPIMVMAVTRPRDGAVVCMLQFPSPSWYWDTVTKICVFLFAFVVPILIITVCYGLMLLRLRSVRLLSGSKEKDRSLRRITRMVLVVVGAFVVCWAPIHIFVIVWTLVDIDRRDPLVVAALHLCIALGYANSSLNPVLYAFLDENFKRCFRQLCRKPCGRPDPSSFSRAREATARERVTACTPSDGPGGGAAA

[12] = 80 mg/kg, Sesame oil + 1% Benzyl Alcohol
[13] = 123 mg/kg, Sesame oil + 1% Benzyl Alcohol
[14] = 165 mg/kg, Sesame oil + 1% Benzyl Alcohol
[15] = 80 mg/kg, Cottonseed + 1% Benzyl Alcohol
[16] = 123 mg/kg, Cottonseed oil + 1% Benzyl Alcohol

SMILES	Approximate Solubility (mg/mL) in Excipient: Sesame oil ([1]; obs. temp. 40 °C) [mg/mL]	Liver S9 Fraction Stability % remaining at 60 minutes, Dog [3] [%]	Liver S9 Fraction Stability % remaining at 60 minutes, Human [4] [%]	% remaining at time point in minutes, 0 min [5] [%]	% remaining at time point in minutes, 15 min [5] [%]	% remaining at time point in minutes, 120 min [5] [%]	% remaining at time point in minutes, 480 min [5] [%]	% remaining at time point in minutes, 1440 min [5] [%]	%Inh@MaxDose (MOR) [%]	Approximate Solubility (mg/mL) in Excipient: Sesame oil ([1]; obs. temp. 25 °C) [mg/mL]	% remaining at time point in minutes, 0 min [6] [%]	% remaining at time point in minutes, 15 min [6] [%]	% remaining at time point in minutes, 120 min [6] [%]	% remaining at time point in minutes, 480 min [6] [%]	% remaining at time point in minutes, 1440 min [6] [%]	% remaining at time point in minutes, 0 min [9] [%]	% remaining at time point in minutes, 15 min [9] [%]	% remaining at time point in minutes, 120 min [9] [%]	% remaining at time point in minutes, 480 min [9] [%]	% remaining at time point in minutes, 1440 min [9] [%]	further results
C=C1CC[C@@]2(O)[C@H]3Cc4ccc(O)c5c4[C@@]2(CCN3CC2CC2)[C@H]1O5 [61 (Nalmefene)]	<25.5																				Approximate Solubility (mg/mL) in Excipient: Cottonseed oil ([1]; obs. temp. 40 °C): <25.0 mg/mL; Approximate Solubility (mg/mL) in Excipient: Ethanol ([1]; Ethanol, obs. temp. 40 °C): 102 to 137 mg/mL; Equilibrium solubility (mg/mL) Water ([2]; heating temp. 60 °C): 0.025 mg/mL
C=C1CC[C@@]2(O)C3Cc4ccc(OC(=O)OCCCCCCCCCCCC)c5c4[C@@]2(CCN3CC2CC2)[C@H]1O5 [Compound 6, (4aS,7aS,12bS)-3-(cyclopropylmethyl)-4a-hydroxy-7-methylene-2,3,4,4a,5,6,7,7a-octahydro-1H-4,12-methanobenzofuro[3,2-e]isoquinolin-9-yl dodecyl carbonate]		17.1	5.3	100	88.7	74.3	68.4	70.1	102.5	>386	100	97.6	102	109.8	115.1	100	31.3	7.6	4	1.6	Approximate Solubility (mg/mL) in Excipient: Cottonseed oil ([1]; obs. temp. 25 °C): >397 mg/mL; AUC0-inf (ng · h/mL) prodrug ([7]; 30 mg/kg): 398 ng·h/mL; Half-life t1/2 (hour) prodrug ([7]; 30 mg/kg): 95 h; AUC0-inf (ng · h/mL) prodrug ([7]; 96 mg/kg): 1290 ng·h/mL; Half-life t1/2 (hour) prodrug ([7]; 96 mg/kg): 88 h; AUC0-inf (ng · h/mL) prodrug [8, 12]: 78.9 ng·h/mL; Half-life t1/2 (hour) prodrug [8, 12]: 340 h; AUC0-inf (ng · h/mL) prodrug [8, 13]: 620 ng·h/mL; Half-life t1/2 (hour) prodrug [8, 13]: 213 h; AUC0-inf (ng · h/mL) prodrug [8, 14]: 637 ng·h/mL; Half-life t1/2 (hour) prodrug [8, 14]: 204 h; %Inh@MaxDose (KOR): 99.6%; Liver S9 Fraction Stability % remaining at 60 minutes, Monkey [10]: 0%; % remaining at time point in minutes, 0 min [11]: 100%; % remaining at time point in minutes, 15 min [11]: 89.1%; % remaining at time point in minutes, 120 min [11]: 96.9%; % remaining at time point in minutes, 480 min [11]: 107.2%; % remaining at time point in minutes, 1440 min [11]: 101.2%
C=C1CC[C@@]2(O)C3Cc4ccc(OC(=O)CCCCCCCCCCCCCCCCC)c5c4[C@@]2(CCN3CC2CC2)[C@H]1O5 [Compound 12, (4aS,7aS,12bS)-3-(cyclopropylmethyl)-4a-hydroxy-7-methylene-2,3,4,4a,5,6,7,7a-octahydro-1H-4,12-methanobenzofuro[3,2-e]isoquinolin-9-yl stearate]	>411.1									<50											Equilibrium solubility (mg/mL) Water ([2]; heating temp. 40 °C): 0.026 mg/mL
C=C1CC[C@@]2(O)C3Cc4ccc(OCOC(=O)OCCCCCCCCCCCC)c5c4[C@@]2(CCN3CC2CC2)[C@H]1O5 [Compound 24, (((4aS,7aS,12bS)-3-(cyclopropylmethyl)-4a-hydroxy-7-methylene-2,3,4,4a,5,6,7,7a-octahydro-1H-4,12-methanobenzofuro[3,2-e]isoquinolin-9-yl)oxy)methyl dodecyl carbonate]		3.6	3.5	100	90.7	93.5	96.2	97.8	88.7		100	94	102.3	105.3	112.5	100	32	11.8	8.2	3	AUC0-inf (ng · h/mL) prodrug [8, 15]: 147 ng·h/mL; Half-life t1/2 (hour) prodrug [8, 15]: 398 h; AUC0-inf (ng · h/mL) prodrug [8, 16]: 547 ng·h/mL; Half-life t1/2 (hour) prodrug [8, 16]: 717 h; AUC0-inf (ng · h/mL) prodrug ([8]; 165 mg/kg, Cottonseed oil + 1% Benzyl Alcohol): 453 ng·h/mL; %Inh@MaxDose (KOR): 82.9%; %Inh@MaxDose (DOR): 48%; Liver S9 Fraction Stability % remaining at 60 minutes, Monkey [10]: 3%; % remaining at time point in minutes, 0 min [11]: 100%; % remaining at time point in minutes, 15 min [11]: 94.7%; % remaining at time point in minutes, 120 min [11]: 104.5%; % remaining at time point in minutes, 480 min [11]: 115.7%; % remaining at time point in minutes, 1440 min [11]: 116.2%
O=C(CCC1CCCC1)Oc1ccc2c3c1O[C@H]1C(=O)CC[C@@]4(O)C(C2)N(CC2CC2)CC[C@]314 [Compound 43, (4aS,7aR,12bS)-3-(cyclopropylmethyl)-4a-hydroxy-7-oxo-2,3,4,4a,5,6,7,7a-octahydro-1H-4,12-methanobenzofuro[3,2-e]isoquinolin-9-yl 3-cyclopentylpropanoate]																					Equilibrium solubility (mg/mL) Water ([2]; heating temp. 40 °C): 0.048 mg/mL
